Consider 26 compounds from patent publication US11098062B2, “Monocyclic and bicyclic ring system substituted carbanucleoside analogues for use as PRMT5 inhibitors” (Janssen Pharmaceutica NV, priority 2016, dated 2021).

Assay [1] deals with nuclear symmetric Arginine dimethylation in A549 cells. Kind of assay: PD assay (assay 2): inhibition of nuclear symmetric Arginine dimethylation (SYM10 immunostaining) in A549 cells. Particulars: Homo sapiens, 48 h incubation, SYM10 antibody, averaged values, read-out: pIC50 Assay 2 (converted). The assay is classed as cell-based. Here is the method: Experimental Procedure PD Assay (Assay 2)
A549 cells (ATCC, Cat #CCL-185) were cultured in Dulbecco's Modified Eagle's Medium (DMEM) (Sigma, Cat #D5796), supplemented with 10% Fetal Calf Serum (FCS) (HyClone™, Cat #SV30160.03), 100 mM Sodium Pyruvate (Sigma, Cat #S8636), 200 mM L-Glutamine (Sigma, Cat #G7513) and 50 mg/mL Gentamycing (Gibco, Cat #15750-037).
Reagents used for buffers were purchased: Dulbecco's phosphate buffered saline (DPBS) without Ca/Mg (Sigma, Cat #D8537), phosphate buffered saline (PBS) 10× (Roche, Cat #11 666 789 001), Formalin solution 10% (Sigma, HT50-1-128-4L), Methanol 100% (Sigma, Cat #32213-2.5L), Triton X-100 (Acros, Cat #215680010), Bovine Serum Albumin (BSA) (Sigma, Cat #A2153), Alexa fluor 488 goat anti-rabbit antibody (Life Technologies, Cat #A11034), HCS CellMask Deep Red Stain (Life Technologies, Cat #H32721), Hoechst Stain (Life Technologies, Cat #33258), Anti-dimethyl-Arginine, sym (SYM10) antibody (Millipore, 07-412).
Cells were plated at 400 cells/40 μL/well in 384 well black μplates clear bottom (Perkin Elmer) and overnight incubated at 37° C., 5% CO2. The IC50 Studies were performed using nine point dosing series ranging from 10 μM to […] for each compound. 80 nL of the respective dilution of the compounds was added using the Labcyte POD 810 (Labcyte) reaching a final DMSO concentration of 0.2% in cell culture. After an incubation period of 48 h at 37° C. and 5% CO2, cells were fixed in 10% formalin solution for 15 min at room temperature and 20 min in ice-cold methanol, after which they were washed 3× in DPBS. Subsequently, the cells were blocked for 1 h in blocking buffer (PBS+1% BSA and 0.5% Triton X-100) and incubated overnight at 4° C. with the SYM10 antibody diluted 1/2000 in blocking buffer. The cells were washed 3× with washing buffer (PBS+0.1% Triton X-100) and incubated with the Alexa fluor 488 goat anti-rabbit antibody diluted 1/200 in blocking buffer for 1 h at room temperature. Subsequently, they were washed 3× with washing buffer and incubated for 30 min at room temperature with PBS containing a 1/5000 dilution of Hoechst Stain and a 1/5000 dilution of the HCS CellMask Deep Red Stain. After a final wash with PBS, the plates were imaged using the 10×W lens of the Opera® system (Perkin Elmer Life Sciences) using following settings (values in nm):
Low control: minimum level of symmetrically dimethylated Arginines (cells treated with reference compound at 10 μM).
High control: maximum level of symmetrically dimethylated Arginines (DMSO treated cells).
IC50 and pIC50 (−log IC50) values were calculated using the appropriate software.
The pIC50 values in the Table below are averaged values (Co. No. means compound number; n.d. means not determined).

Assay [2] has as its target T1, PRMT5-MEP50 enzyme (Homo sapiens, UniProt O14744).
T1 construct: One virus expresses full length human PRMT5 with Flag-tag at N-terminus; Flag (N); purchased Charles River (Argenta); host or cells: insect cells (Sf9), baculovirus co-infection
Kind of assay: In vitro assay 1a: PRMT5-MEP50 high throughput mass spectrometer assay (SAH formation), 10 nM enzyme. Conditions: 1 μM SAM, 0.3 μM H2A, 30° C., 60 min, averaged values, read-out: pIC50 Assay 1a (converted). The assay is classed as biochemical. From the text: (§1) Experimental Procedures In Vitro Assay (Assay 1a and 1b)
(§2) PRMT5-MEP50 enzyme was purchased from Charles River (Argenta). The enzyme complex was produced in insect cells (Sf9) infected simultaneously with two baculoviruses. One virus expresses full length human PRMT5 with Flag-tag at N-terminus, the second virus expresses full length MEP50 with His6-TEV cleavage at N-terminus. The protein was affinity purified using anti-Flag (M2) beads eluted with 3×FLAG peptide, followed by His-Select eluted with 0.5M imidazole. Eluted protein was then dialysed against tris-buffered saline (TBS) (pH 8.0) containing 20% glycerol and 3 mM dithiothreitol (DTT).
(§3) Full-length untagged human recombinant histone H2A (residues 1-130, Genbank Accession #NM_021052, MW=14.1 kDa) expressed in E. coli was purchased from Reaction Biology Corporation, Cat #HMT-11-146. Reagents used for making reaction buffer or stopping reaction were purchased including Tris base (Sigma Cat #T-1503), NaCl (Sigma Cat #RGF-3270), MgCl2 (Sigma Cat #M0250), DTT (Invitrogen Cat #15508-013) and Formic Acid (Riedel deHaen, Cat #33015)
(§4) PRMT5 catalyzes the sequential methylations of the terminal nitrogen atoms on the guanidine groups of arginine residues within proteins using co-substrate S-adenosyl-L-methionine (AdoMet, SAM), forming mono-methyl (MMA), syrmmetric-dimethyl arginine (sDMA) and S-adenosyl-L-homocysteine (AdoHcy, SAH). The enzyme activity was determined by following the product SAH formation using high throughput mass spectrometry (Agilent Rapidfire 300 System coupled to a Sciex 4000 series QTrap® triple-quad MS/MS). The reaction buffer was 20 mM Tris-HCl, pH 8.5, 50 mM NaCl, 5 mM MgCl2 and 1 mM DTT. The reaction activity was stopped using 1% formic acid (final concentration).
(§5) The IC50 Studies were performed using eleven point dosing series made for each compound by serially diluted 1:2 in dimethyl sulfoxide (DMSO), with point 12 being a DMSO control. Compounds were first spotted to plates, and followed by addition of 2 μM SAM and 0.6 μM H2A (histone H2A) solution mixture. The same volume of enzyme solution was added to initiate the enzymatic reactions. The final concentrations of the reaction are at 1 μM SAM, 0.3 μM H2A and 10 nM enzyme (assay 1a) or or 1.25 nM enzyme (assay 1b). The reaction was incubated at 30° C. for 60 minutes (min) when 10 nM enzyme was used and for 120 min when 1.25 nM enzyme was used. Subsequently, the reaction was quenched by addition of formic acid to a final concentration of 1%. The inhibitions of SAH formation in the presence of compounds were calculated as a percentage of the control relative to the uninhibited reaction as a function of inhibitor concentration. The data were fit as follows: Y=Bottom+(Top−Bottom)/(1+10^((log IC50−X)*h))
(§6) where IC50 is the inhibitor concentration (same unit as X) at 50% inhibition and h is the Hill slope. Y is percent of inhibition, X is log of compound concentration. Bottom and Top are the plateaus in same units as Y.

Assay [3] addresses T1, PRMT5-MEP50 enzyme. Kind of assay: In vitro assay 1b: PRMT5-MEP50 high throughput mass spectrometer assay (SAH formation), 1.25 nM enzyme. The assay is classed as biochemical.
Source text: as §1, §2, §3, §4, §5, §6

A further assay concerns MCL xenograft models. Particulars: multiple MCL xenograft models; cited from earlier work.
Another assay deals with PRMT5 (Homo sapiens, UniProt O14744). Conditions: background statement; cited from earlier work.
[4] abbreviates: 1.25 nM enzyme, 1 μM SAM, 0.3 μM H2A, 30° C., 120 min, averaged values, read-out: pIC50 Assay 1b (converted).

Molecules are shown by their SMILES.

T1 sequence (O14744 whole entry): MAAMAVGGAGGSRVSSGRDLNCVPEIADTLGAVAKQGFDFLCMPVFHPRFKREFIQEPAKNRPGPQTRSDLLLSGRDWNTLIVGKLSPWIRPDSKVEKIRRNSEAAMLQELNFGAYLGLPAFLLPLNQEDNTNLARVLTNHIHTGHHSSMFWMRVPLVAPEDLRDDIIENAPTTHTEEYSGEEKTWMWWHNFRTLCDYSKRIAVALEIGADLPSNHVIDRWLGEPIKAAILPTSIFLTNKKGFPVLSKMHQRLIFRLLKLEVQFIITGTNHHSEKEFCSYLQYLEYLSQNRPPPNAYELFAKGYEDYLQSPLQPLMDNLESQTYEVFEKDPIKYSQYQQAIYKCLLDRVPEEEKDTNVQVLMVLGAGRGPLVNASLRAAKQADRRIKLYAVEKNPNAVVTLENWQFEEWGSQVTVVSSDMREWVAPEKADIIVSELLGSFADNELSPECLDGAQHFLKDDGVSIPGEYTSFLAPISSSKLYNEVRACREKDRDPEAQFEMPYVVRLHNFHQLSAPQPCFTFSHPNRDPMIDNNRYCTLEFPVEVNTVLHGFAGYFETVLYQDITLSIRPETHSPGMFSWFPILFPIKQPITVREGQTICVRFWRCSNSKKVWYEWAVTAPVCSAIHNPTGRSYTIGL
T1 sequence (Q9BQA1 whole entry partner): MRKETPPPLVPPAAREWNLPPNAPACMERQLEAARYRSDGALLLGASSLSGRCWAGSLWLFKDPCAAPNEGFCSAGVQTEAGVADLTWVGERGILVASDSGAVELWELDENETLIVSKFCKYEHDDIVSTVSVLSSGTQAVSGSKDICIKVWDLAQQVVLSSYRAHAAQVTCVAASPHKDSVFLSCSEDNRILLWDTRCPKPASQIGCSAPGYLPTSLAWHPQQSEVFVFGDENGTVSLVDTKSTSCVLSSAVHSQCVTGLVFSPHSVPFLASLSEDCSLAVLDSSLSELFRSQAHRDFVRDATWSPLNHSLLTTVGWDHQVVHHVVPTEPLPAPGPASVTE
PRMT5, sequence (O14744 whole entry, species assumed): as the sequence (O14744 whole entry) above
PRMT5, sequence (Q9BQA1 whole entry partner, species assumed): as the sequence (Q9BQA1 whole entry partner) above

For `Cc1cnc2cc(CC[C@H]3C[C@@H](n4ccc5c(N)ncnc54)[C@H](O)[C@@H]3O)ccn12` [Compound 1], the IC50 is 1.26 nM in assay [1] and 0.794 nM on PRMT5-MEP50 enzyme [2].

Regarding `Cc1cnc2cc(CC[C@H]3C[C@@H](n4ccc5c(N)ncnc54)[C@H](O)[C@@H]3O)c(Cl)cn12` [Compound 2], the IC50 in assay [1] is 6.31 nM; on PRMT5-MEP50 enzyme [3] (setting [4]) it was 0.158 nM.

Regarding `Nc1ncnc2c1ccn2[C@@H]1C[C@H](CCc2ccn3ccnc3c2)[C@@H](O)[C@H]1O` [Compound 3], the IC50 in assay [1] was 20 nM; at PRMT5-MEP50 enzyme [2], 2 nM.

With `Cn1cnc2cc(CC[C@H]3C[C@@H](n4ccc5c(N)ncnc54)[C@H](O)[C@@H]3O)ccc21` [Compound 4], the results for the IC50 (in assay [1]; on PRMT5-MEP50 enzyme [2]) were 31.6 nM and 12.6 nM, respectively.

As for `Nc1nc2cc(CC[C@H]3C[C@@H](n4ccc5c(Cl)ncnc54)[C@H](O)[C@@H]3O)ccc2s1` [Compound 5], the IC50 in assay [1] is 3980 nM; on PRMT5-MEP50 enzyme [2] it was 12.6 nM.

`Nc1nc2cc(CC[C@H]3C[C@@H](n4ccc5c(N)ncnc54)[C@H](O)[C@@H]3O)ccc2s1` [Compound 6]: the IC50 is 15.8 nM in assay [1] and 2 nM on PRMT5-MEP50 enzyme [2].

On to `CNc1nc2cc(CC[C@H]3C[C@@H](n4ccc5c(N)ncnc54)[C@H](O)[C@@H]3O)ccc2s1` [Compound 7], for which the values for the IC50 (in assay [1]; at PRMT5-MEP50 enzyme [2]) were 25.1 nM and 6.31 nM, respectively.

As to `Nc1ncnc2c1ccn2[C@@H]1C[C@H](CCc2ccn3c(C4CC4)cnc3c2)[C@@H](O)[C@H]1O` [Compound 8], the IC50 is 25.1 nM in assay [1] and 2.51 nM on PRMT5-MEP50 enzyme [3] (setting [4]).

Turning to `CNc1ncnc2c1ccn2[C@@H]1C[C@H](CCc2ccn3c(C)cnc3c2)[C@@H](O)[C@H]1O` [Compound 9], the IC50 in assay [1] is 63.1 nM; on PRMT5-MEP50 enzyme [3] (setting [4]), 3.98 nM.

`COc1ncnc2c1ccn2[C@@H]1C[C@H](CCc2ccn3c(C)cnc3c2)[C@@H](O)[C@H]1O` [Compound 10]: the IC50 in assay [1] is 200 nM; on PRMT5-MEP50 enzyme [3] (setting [4]) it was 10 nM.

For the compound `Cc1nc2cc(CC[C@H]3C[C@@H](n4ccc5c(N)ncnc54)[C@H](O)[C@@H]3O)ccn2c1C` [Compound 11], the IC50 in assay [1] was 3.98 nM; against PRMT5-MEP50 enzyme [3], less than 0.2 nM.

In the case of `Cc1cnc2cc(CC[C@H]3C[C@@H](n4ccc5c(N)ncnc54)[C@H](O)[C@@H]3O)c(F)cn12` [Compound 12], the IC50 in assay [1] was 2 nM; at PRMT5-MEP50 enzyme [3] (setting [4]) it was 0.316 nM.

On to `Nc1ncnc2c1ccn2[C@@H]1C[C@H](CCc2ccn3c(Cl)cnc3c2)[C@@H](O)[C@H]1O` [Compound 13], for which the IC50 in assay [1] was 20 nM; at PRMT5-MEP50 enzyme [3] (setting [4]) it was 1.26 nM; at PRMT5-MEP50 enzyme [2] it was 2 nM.

As for `Nc1ncnc2c1ccn2[C@@H]1C[C@H](CCc2ccn3c(Br)cnc3c2)[C@@H](O)[C@H]1O` [Compound 14], the IC50 in assay [1] is 12.6 nM; on PRMT5-MEP50 enzyme [3] (setting [4]) it was 1.58 nM; at PRMT5-MEP50 enzyme [2] it was 1.26 nM.

Take `Cc1cnc2cc(CC[C@H]3C[C@@H](n4cc(Br)c5c(N)ncnc54)[C@H](O)[C@@H]3O)ccn12` [Compound 15]: the IC50 in assay [1] was 6.31 nM; at PRMT5-MEP50 enzyme [3] (setting [4]), 1 nM.

Regarding `Nc1ncnc2c1ccn2[C@@H]1C[C@H](CCc2cc3ncccc3[nH]2)[C@@H](O)[C@H]1O` [Compound 17], the IC50 in assay [1] is 1000 nM; at PRMT5-MEP50 enzyme [2] it was 39.8 nM.

With `Nc1ncnc2c1ccn2[C@@H]1C[C@H](CCc2cc3ncccc3s2)[C@@H](O)[C@H]1O` [Compound 18], the IC50 in assay [1] was 126 nM; on PRMT5-MEP50 enzyme [2], 39.8 nM.

`Nc1ncnc2c1ccn2[C@@H]1C[C@H](CCc2cc3ncccc3o2)[C@@H](O)[C@H]1O` [Compound 19]: the figures for the IC50 (in assay [1]; on PRMT5-MEP50 enzyme [2]) were 5010 nM and 1260 nM, respectively.

On to `Cc1cnc2c(Cl)c(CC[C@H]3C[C@@H](n4ccc5c(N)ncnc54)[C@H](O)[C@@H]3O)ccn12` [Compound 21], for which the IC50 in assay [1] was 15.8 nM; at PRMT5-MEP50 enzyme [3] (setting [4]), 3.98 nM.

Turning to `Nc1ncnc2c1ccn2[C@@H]1C[C@H](COc2ccn3ccnc3c2)[C@@H](O)[C@H]1O` [Compound 24], the IC50 in assay [1] was 1580 nM; at PRMT5-MEP50 enzyme [2] it was 31.6 nM.

Consider `Cn1cnc2cc(OC[C@H]3C[C@@H](n4ccc5c(N)ncnc54)[C@H](O)[C@@H]3O)ccc21` [Compound 25], for which the figures for the IC50 (in assay [1]; at PRMT5-MEP50 enzyme [2]) were 2000 nM and 126 nM, respectively.

Regarding `Nc1ccc(CC[C@H]2C[C@@H](n3ccc4c(N)ncnc43)[C@H](O)[C@@H]2O)cn1` [Compound 27], the results for the IC50 (in assay [1]; on PRMT5-MEP50 enzyme [3]) were 6.31 nM and 5.01 nM, respectively.

As for `Nc1cccc(CC[C@H]2C[C@@H](n3ccc4c(N)ncnc43)[C@H](O)[C@@H]2O)n1` [Compound 28], the IC50 in assay [1] is 631 nM; at PRMT5-MEP50 enzyme [3] (setting [4]) it was 158 nM.

With `Nc1cc(CC[C@H]2C[C@@H](n3ccc4c(N)ncnc43)[C@H](O)[C@@H]2O)ccn1` [Compound 29], the figures for the IC50 (in assay [1]; at PRMT5-MEP50 enzyme [3] (setting [4])) were 2000 nM and 398 nM, respectively.

As for `Nc1ccc(/C=C/[C@H]2C[C@@H](n3ccc4c(N)ncnc43)[C@H](O)[C@@H]2O)cn1` [Compound 30], the figures for the IC50 (in assay [1]; on PRMT5-MEP50 enzyme [3] (setting [4])) were 501 nM and 63.1 nM, respectively.

In the case of `O=C(NC[C@H](O)CN1CCc2ccccc2C1)c1cc(NC2COC2)ncn1` [EPZ015666], the anti-tumour activity entry with MCL xenograft models was “anti-tumour activity in multiple MCL xenograft models”. Besides, at PRMT5, the PRMT5 inhibitor potency result is on record as “sub-nanomolar potent”.
